Tests used:
A549 cell line = assay: MTT cell viability, A549 cell line; format: cell-based, human; details: Homo sapiens, A549 cell line, 24 hours, MTT
Description: (§1) The above cell lines were plated in 96-well plates at a density of 1×10^4 cells/well for 16 to 20 hours. […] After drug treatment, the cell lines were washed with phosphate-buffered saline (hereinafter referred to PBS), and were replaced with fresh complete RPMI-1640 medium for 2 days. Thereafter, the medium was replaced and the cells were incubated with 0.5 mg/ml of 3-(4,5-dimethylthiazol-2-yl)-2,5-diphenyltetrazolium bromide reagent (hereinafter referred to MTT, Sigma Chemical Co., St. Louis, Mo.) in complete RPMI-1640 medium for 4 hours. The viable cells converted MTT to formazan that generates a blue-purple color when dissolved in dimethyl sulfoxide (hereinafter referred to DMSO). The intensity of formazan was measured at 565 nm using a plate reader (VERSAmax, Molecular Dynamics, Sunnyvale, Calif.). The relative percentage of cell viability was calculated by dividing the absorbance of treated cells by that of the control in each experiment.
(§2) After drug treatment, the cells were washed with PBS and replaced with fresh complete RPMI-1640 medium for 2 days. Thereafter, the medium was replaced and the cells were incubated with 0.5 mg/mL of MTT reagent (Sigma Chemical Co., St. Louis, Mo.) in complete RPMI-1640 medium for 4 hours. The intensity of formazan was measured at 565 nm using a plate reader (VERSAmax, Molecular Dynamics, Sunnyvale, Calif.). The relative percentage of cell viability was calculated by dividing the absorbance of treated cells by that of the control in each experiment.

[1] = tested on: RKO human rectal cancer cell line; assay: MTT cell viability, RKO cells; format: cell-based; details: 24 hours, in comparison with Iressa
Description: as §1

[2] = tested on: BFTC905 human bladder cancer cell line; assay: MTT cell viability, BFTC905 cells; format: cell-based; details: 24 hours, in comparison with Iressa
Description: as §1

survivin [3] = assay: Western blot of survivin protein expression in A549 cells; details: 0 to 40 μM, 24 hours
Description: (§4) The protease inhibitors including 1 μg/ml aprotinin, 0.5 μg/ml leupeptin, and 100 μg/ml 4-(2-aminoethyl)benzenesulfonyl fluoride were added to the cell suspensions. The lysates were vibrated for 30 minutes at 4° C. and centrifuged at 10,000 rpm for 10 minutes. The protein concentrations were determined by the BCA protein assay kit (Pierce, Rockford, Ill.). […] The membranes were blocked overnight at 4° C. using blocking buffer (5% non-fat dried milk in solution containing 50 mM Tris/HCl (pH 8.0), 2 mM CaCl2, 80 mM NaCl, 0.05% Tween 20 and 0.02% sodium azide). The membranes were sequentially hybridized with primary antibody and followed with a horseradish peroxidase-conjugated secondary antibody. The protein bands were visualized on the X-ray film using the enhanced chemiluminescence detection system (PerkinElmer Life and Analytical Sciences, Boston, Mass.). […] To verify equal protein loading and transfer, actin was used as the protein loading control. The gel digitizing software, Un-Scan-It gel (Ver. 5.1, Silk Scientific, Inc., Orem, Utah), was used to analyze the intensity of protein bands on X-ray film.
(§5) A549 cells were plated at a density of 1×10^6 cells per 60-mm Petri dish in complete medium for 16 to 20 hours. […] To verify equal protein loading and transfer, actin was used as the protein loading control.

A549 cells [4] = assay: Cell cycle analysis, PI staining and flow cytometry; format: cell-based, human; details: 40 μM, 24 hours, 60.5% before treatment
Description: After the treatment, the cells were collected and fixed with ice-cold 70% ethanol overnight at −20° C. After centrifugation at 1500 rpm for 5 minutes, the pellets were treated with 4 μg/ml PI solution containing 1% Triton X-100 and 50 μg/ml RNase at 37 °C for 30 minutes in the dark. To avoid cell aggregation, the cell solutions were filtrated through nylon membrane (Becton-Dickinson, San Jose, Calif.). Subsequently, the samples were analyzed by flow cytometry. For each measurement, 10,000 cells were analyzed for DNA content. The percentage of cell cycle phases was quantified by ModFit LT software (Ver. 2.0, Becton-Dickinson).

A549 cells [5] = assay: Annexin V-PI apoptosis analysis by flow cytometry; format: cell-based, human; details: 10-40 μM for 24 hours
Description: The Annexin V-PI staining kit (BioVision, Mountain View, Calif.) was used to exam the cells by incubating with fluorescent isothiocyanate (FITC)-conjugated-Annexin V and PI according to the manufacturer's instruction. […] The cells were cultured in 60-mm Petri dish at a density of 7×10^5 cells for 16 to 20 hours. […] The cells were trypsinized and collected by centrifugation at 1500 rpm for 5 minutes. Thereafter, the cells were incubated with 500 μl Annexin V-PI labeling solution (containing 5 μl Annexin V-FITC and 5 μl PI in PBS) at room temperature in the dark for 5 minutes. To avoid cell aggregation, the cell solutions were filtered through a nylon mesh membrane (Becton-Dickinson, San Jose, Calif.). Finally, the samples were analyzed immediately using flow cytometer (FACS Calibur, BD Biosciences, Heidelberg, Germany). The percentage of Annexin V-PI staining cells was quantified from a minimum of 10,000 cells by CellQuest software (BD Biosciences).

MARK2 (PAR-1Ba) = molecular target: T1, MARK2 (PAR-1Ba) (Homo sapiens, UniProt Q7KZI7); assay: KinaseProfiler assay, MARK2; format: biochemical; details: read-out: KAR value (kinase activity remaining)
T1 construct: purchased Merck Millipore (KinaseProfiler service)
Source text: (§3) The kinase activity remaining (KAR) value is […] related to kinase activity. […]

[6] = molecular target: T2, CSNK2A1 (casein kinase-2) (Homo sapiens, UniProt P68400); assay: KinaseProfiler assay, CSNK2A1; format: biochemical; details: read-out: KAR value (kinase activity remaining)
T2 construct: purchased Merck Millipore (KinaseProfiler service)
Source text: as §3

[7] = molecular target: T3, STK10 (lymphocyte-oriented kinase) (Homo sapiens, UniProt O94804); assay: KinaseProfiler assay, STK10; format: biochemical; details: read-out: KAR value (kinase activity remaining)
T3 construct: purchased Merck Millipore (KinaseProfiler service)
Source text: as §3

[8] = molecular target: T4, SYK (splenic tyrosine kinase) (Homo sapiens, UniProt P43405); assay: KinaseProfiler assay, SYK; format: biochemical; details: read-out: KAR value (kinase activity remaining)
T4 construct: purchased Merck Millipore (KinaseProfiler service)
Source text: as §3

[9] = molecular target: T5, LIMK1 (LIM motif-containing protein kinase-1) (Homo sapiens, UniProt P53667); assay: KinaseProfiler assay, LIMK1; format: biochemical; details: read-out: KAR value (kinase activity remaining)
T5 construct: purchased Merck Millipore (KinaseProfiler service)
Source text: as §3

A549 cells [10] = assay: Cell growth, cell number by hemocytometer; format: cell-based, human; details: 30 μM for 24 hours, then cultured 2-6 days
Description: The cells were washed with PBS after the treatment. […] The cell number was calculated with hemocytometer.

[11] = molecular target: T6, FGFR1 (fibroblast growth factor receptor-1) (Homo sapiens, UniProt P11362); assay: KinaseProfiler assay, FGFR1; format: biochemical; details: read-out: KAR value (kinase activity remaining)
T6 construct: purchased Merck Millipore (KinaseProfiler service)
Source text: as §3

PARP = assay: Western blot of cleaved PARP in A549 cells; details: 10-40 μM, 24 hours
Description: as §4, §5

[12] = molecular target: T7, MKNK2 (MAPK-interacting kinase-2) (Homo sapiens, UniProt Q9HBH9); assay: KinaseProfiler assay, MKNK2; format: biochemical; details: read-out: KAR value (kinase activity remaining)
T7 construct: purchased Merck Millipore (KinaseProfiler service)
Source text: as §3

caspase 3 = assay: Western blot of active caspase 3 in A549 cells; details: 10-40 μM, 24 hours
Description: as §4, §5

survivin [13] = assay: RT-PCR of survivin gene expression in A549 cells; format: cell-based, human; details: 0 to 40 μM, 24 hours
Description: After the treatment, total cellular RNA was purified by ZR RNA MiniPrep™ (Zymo Research, Irvine, Calif.) according to the manufacturer's protocol. RNA concentrations were determined by spectrophotometry. cDNAs were synthesized by SuperScript™ III reverse transcriptase with oligo (dT)12-18 primer (Invitrogen). Each reverse transcript was amplified with GAPDH as an internal control. Reverse transcription polymerase chain reaction (RT-PCR) was performed by a DNA thermal cycler (Mastercycler gradient, Hamburg, Germany). […] The conditions of RT-PCR are stated as followed: the initial denaturation was performed at 94° C. for 2 minutes, followed by 30 cycles at 94° C. for 30 seconds, 56° C. for 30 seconds, and 72° C. for 40 seconds; and 72° C. for 5 minutes. The PCR products were visualized on 1.2% agarose gels with ethidium bromide staining under UV transillumination, and photograph was taken by a camera DH27-S3 (Medclub, Taoyuan, Taiwan).

[14] = molecular target: T8, MAPK14 (stress-activated protein kinase-2a) (Homo sapiens, UniProt Q16539); assay: KinaseProfiler assay, MAPK14; format: biochemical; details: read-out: KAR value (kinase activity remaining)
T8 construct: purchased Merck Millipore (KinaseProfiler service)
Source text: as §3

[15] = MTT cell viability, HFL1 normal lung fibroblasts; format: cell-based; details: human, HFL1 normal lung fibroblast cells, 0 to 40 μM
Description: as §2

[16] = molecular target: T9, RET (product of ret proto-oncogene) (Homo sapiens, UniProt P07949); assay: KinaseProfiler assay, RET; format: biochemical; details: read-out: KAR value (kinase activity remaining)
T9 construct: purchased Merck Millipore (KinaseProfiler service)
Source text: as §3

T9 sequence (P07949 29-1114): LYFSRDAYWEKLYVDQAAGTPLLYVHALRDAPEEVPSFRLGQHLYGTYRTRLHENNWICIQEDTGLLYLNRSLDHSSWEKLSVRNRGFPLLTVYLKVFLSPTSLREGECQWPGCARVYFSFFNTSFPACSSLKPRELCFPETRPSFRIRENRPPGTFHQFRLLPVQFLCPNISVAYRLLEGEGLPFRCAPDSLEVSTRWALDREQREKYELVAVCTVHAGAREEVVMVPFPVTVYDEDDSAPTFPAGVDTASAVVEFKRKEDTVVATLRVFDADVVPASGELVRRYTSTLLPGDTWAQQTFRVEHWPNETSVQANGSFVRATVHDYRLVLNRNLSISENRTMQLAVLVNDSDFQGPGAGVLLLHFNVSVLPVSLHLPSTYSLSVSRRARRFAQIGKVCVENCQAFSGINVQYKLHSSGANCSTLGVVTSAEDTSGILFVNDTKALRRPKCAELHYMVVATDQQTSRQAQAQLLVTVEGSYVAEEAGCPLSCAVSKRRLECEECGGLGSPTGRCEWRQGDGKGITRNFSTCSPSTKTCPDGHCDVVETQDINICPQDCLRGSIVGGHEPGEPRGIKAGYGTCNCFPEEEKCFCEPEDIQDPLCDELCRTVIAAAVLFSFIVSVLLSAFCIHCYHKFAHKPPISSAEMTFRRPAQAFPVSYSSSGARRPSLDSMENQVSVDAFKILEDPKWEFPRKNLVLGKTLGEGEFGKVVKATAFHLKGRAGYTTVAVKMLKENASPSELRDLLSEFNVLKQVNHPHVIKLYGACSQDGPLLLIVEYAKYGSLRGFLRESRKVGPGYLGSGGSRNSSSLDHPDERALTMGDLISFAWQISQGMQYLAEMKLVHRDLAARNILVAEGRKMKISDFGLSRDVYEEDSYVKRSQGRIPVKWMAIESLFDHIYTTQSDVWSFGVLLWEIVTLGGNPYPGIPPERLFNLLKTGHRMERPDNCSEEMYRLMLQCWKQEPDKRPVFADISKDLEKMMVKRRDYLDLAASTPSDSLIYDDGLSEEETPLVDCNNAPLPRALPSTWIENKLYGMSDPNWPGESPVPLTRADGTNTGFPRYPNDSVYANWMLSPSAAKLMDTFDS
T1 sequence (Q7KZI7 1-725 isoform Q7KZI7-4): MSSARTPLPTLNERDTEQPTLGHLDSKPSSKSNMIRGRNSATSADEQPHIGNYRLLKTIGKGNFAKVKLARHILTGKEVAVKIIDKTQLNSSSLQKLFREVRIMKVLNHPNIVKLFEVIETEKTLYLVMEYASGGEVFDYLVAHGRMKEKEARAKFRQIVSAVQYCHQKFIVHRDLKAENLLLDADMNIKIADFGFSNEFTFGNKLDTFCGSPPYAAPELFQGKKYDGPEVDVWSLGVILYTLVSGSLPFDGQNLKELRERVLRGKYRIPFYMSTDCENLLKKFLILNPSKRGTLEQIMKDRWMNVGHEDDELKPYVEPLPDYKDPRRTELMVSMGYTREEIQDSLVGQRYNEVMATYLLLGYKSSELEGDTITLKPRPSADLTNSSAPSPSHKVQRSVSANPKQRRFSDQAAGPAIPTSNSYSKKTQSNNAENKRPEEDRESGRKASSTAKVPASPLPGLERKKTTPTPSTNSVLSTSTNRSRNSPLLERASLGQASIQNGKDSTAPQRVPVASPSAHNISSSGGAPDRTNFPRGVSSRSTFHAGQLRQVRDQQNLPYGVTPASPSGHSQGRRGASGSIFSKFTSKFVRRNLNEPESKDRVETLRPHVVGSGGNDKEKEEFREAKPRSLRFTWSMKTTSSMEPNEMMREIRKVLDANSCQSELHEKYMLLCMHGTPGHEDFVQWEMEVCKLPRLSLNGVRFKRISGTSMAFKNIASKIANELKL
T6 sequence (P11362 22-822): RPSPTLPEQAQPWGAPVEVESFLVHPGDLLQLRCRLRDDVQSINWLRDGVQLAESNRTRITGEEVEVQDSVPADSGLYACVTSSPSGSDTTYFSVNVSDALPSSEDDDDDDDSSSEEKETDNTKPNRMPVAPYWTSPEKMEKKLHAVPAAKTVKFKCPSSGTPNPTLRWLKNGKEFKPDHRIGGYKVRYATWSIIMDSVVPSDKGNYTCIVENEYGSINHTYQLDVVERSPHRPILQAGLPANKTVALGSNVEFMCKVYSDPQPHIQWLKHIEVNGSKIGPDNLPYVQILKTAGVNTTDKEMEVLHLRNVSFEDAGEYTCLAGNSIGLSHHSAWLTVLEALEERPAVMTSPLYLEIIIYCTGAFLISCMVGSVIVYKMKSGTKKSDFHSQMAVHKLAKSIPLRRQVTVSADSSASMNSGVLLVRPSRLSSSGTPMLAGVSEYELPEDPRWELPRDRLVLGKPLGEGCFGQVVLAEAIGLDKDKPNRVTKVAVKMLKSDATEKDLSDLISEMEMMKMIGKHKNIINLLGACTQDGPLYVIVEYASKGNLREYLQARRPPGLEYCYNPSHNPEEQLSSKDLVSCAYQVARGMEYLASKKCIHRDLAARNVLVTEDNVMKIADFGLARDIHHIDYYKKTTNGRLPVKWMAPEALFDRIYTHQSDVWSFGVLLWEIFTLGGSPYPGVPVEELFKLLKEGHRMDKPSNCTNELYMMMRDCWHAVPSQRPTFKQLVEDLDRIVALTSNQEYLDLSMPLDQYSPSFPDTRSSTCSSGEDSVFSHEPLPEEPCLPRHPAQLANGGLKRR
T2 sequence (P68400 whole entry): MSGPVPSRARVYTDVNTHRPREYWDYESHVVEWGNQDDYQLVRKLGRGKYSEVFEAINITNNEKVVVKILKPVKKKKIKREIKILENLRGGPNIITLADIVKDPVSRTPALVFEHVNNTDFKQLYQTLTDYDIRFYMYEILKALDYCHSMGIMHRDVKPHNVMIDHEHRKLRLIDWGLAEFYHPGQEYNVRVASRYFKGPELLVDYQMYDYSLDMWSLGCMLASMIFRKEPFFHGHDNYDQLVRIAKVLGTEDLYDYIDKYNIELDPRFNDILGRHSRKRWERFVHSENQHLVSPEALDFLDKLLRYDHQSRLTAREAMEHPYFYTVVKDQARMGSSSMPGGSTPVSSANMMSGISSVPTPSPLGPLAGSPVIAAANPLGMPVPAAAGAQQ
T3 sequence (O94804 whole entry): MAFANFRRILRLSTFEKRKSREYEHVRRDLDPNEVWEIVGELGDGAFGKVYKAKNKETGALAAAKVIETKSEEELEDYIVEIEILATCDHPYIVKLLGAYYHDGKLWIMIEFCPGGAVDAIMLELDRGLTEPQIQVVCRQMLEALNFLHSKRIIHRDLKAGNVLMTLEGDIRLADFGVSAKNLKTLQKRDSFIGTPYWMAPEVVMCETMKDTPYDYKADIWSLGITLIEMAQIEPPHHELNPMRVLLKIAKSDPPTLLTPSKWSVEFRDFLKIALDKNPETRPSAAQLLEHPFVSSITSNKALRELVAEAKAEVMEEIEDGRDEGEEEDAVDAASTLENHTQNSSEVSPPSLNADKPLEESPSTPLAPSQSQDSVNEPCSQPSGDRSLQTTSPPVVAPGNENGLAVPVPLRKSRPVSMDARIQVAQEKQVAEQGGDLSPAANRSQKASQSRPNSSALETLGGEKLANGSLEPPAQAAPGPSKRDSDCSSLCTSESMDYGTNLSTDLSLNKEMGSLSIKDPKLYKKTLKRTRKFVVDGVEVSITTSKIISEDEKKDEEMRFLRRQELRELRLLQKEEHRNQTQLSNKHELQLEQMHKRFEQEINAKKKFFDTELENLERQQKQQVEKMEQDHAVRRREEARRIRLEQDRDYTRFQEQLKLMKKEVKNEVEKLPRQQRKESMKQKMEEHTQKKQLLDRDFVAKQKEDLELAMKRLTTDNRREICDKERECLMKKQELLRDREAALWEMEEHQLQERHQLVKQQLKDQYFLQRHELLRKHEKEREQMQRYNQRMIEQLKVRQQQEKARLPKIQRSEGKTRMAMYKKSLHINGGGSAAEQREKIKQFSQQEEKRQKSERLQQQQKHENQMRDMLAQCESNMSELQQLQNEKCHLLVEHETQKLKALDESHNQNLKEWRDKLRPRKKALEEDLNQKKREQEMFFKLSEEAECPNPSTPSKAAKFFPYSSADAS
T7 sequence (Q9HBH9 whole entry): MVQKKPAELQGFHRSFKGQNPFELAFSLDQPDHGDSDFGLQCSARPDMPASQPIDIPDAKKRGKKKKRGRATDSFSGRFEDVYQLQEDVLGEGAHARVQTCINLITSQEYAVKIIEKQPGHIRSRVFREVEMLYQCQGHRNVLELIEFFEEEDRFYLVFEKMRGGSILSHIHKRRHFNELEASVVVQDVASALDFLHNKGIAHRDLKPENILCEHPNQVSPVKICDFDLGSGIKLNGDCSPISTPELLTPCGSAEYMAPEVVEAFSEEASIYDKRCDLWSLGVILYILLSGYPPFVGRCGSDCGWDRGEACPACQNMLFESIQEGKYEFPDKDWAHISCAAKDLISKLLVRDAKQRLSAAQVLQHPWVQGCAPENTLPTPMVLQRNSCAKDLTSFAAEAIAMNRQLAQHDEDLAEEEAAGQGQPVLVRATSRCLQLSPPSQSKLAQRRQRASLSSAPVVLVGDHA
T8 sequence (Q16539 whole entry): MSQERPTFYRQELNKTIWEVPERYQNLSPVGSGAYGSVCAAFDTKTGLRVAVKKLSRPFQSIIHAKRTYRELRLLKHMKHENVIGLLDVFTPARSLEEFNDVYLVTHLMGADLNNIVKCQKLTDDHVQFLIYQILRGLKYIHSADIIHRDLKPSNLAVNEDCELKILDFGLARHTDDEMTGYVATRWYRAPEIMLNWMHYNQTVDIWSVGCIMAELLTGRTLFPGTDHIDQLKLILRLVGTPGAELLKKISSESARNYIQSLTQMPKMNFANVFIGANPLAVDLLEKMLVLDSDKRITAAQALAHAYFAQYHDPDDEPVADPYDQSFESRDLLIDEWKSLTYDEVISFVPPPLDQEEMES

Compound: COC(=O)CCC(=O)N1CCN(CCCOc2cc3c(Nc4ccc(F)c(Cl)c4)ncnc3cc2OC)CC1 [Analogue-1, methyl 4-(4-(3-(4-(3-chloro-4-fluorophenylamino)-7-methoxyquinazolin-6-yloxy)propyl)piperazin-1-yl)-4-oxobutanoate]
- viability at 10 µM (A549 cell line): 89.1%
- viability at 20 µM (A549 cell line): 85.6%
- viability at 40 µM (A549 cell line): 75.9%
- viability at 60 µM (A549 cell line): 74.4%
- viability at 80 µM (A549 cell line): 75.9%
- toxicity effect on RKO cells [1]: more effective on cell death of RKO cells and BFTC905 cells than Iressa
- toxicity effect on BFTC905 cells [2]: more effective on cell death of RKO cells and BFTC905 cells than Iressa

Compound: COc1cc2ncnc(Nc3ccc(F)c(Cl)c3)c2cc1OCCCN1CCOCC1 [Iressa, Gefitinib, reference compound]
- survivin protein expression (survivin [3]): significantly inhibited surviving protein expression
- viability at 10 µM (A549 cell line): 86.7%
- viability at 20 µM (A549 cell line): 82.1%
- viability at 40 µM (A549 cell line): 74.3%
- viability at 60 µM (A549 cell line): 64.6%
- viability at 80 µM (A549 cell line): 60.8%
- average percentage of G1 fractions (A549 cells [4]): 76.1%
- average of total apoptosis (A549 cells [5]): around 19.6%
- remaining activity at 10 µM (MARK2 (PAR-1Ba)): 86%
- remaining activity at 10 µM [6]: 92%
- remaining activity at 10 µM [7]: 19%
- remaining activity at 10 µM [8]: 84%
- remaining activity at 10 µM [9]: 76%
- cell growth of A549 cells (A549 cells [10]): inhibit cell growth of A549 cells
- remaining activity at 10 µM [11]: 27%
- cleaved form of PARP (PARP): did not induce any significant change of caspase 3 and PARP
- remaining activity at 10 µM [12]: 9%
- active form of caspase 3 (caspase 3): did not induce any significant change of caspase 3 and PARP
- survivin gene expression (survivin [13]): no significant change
- remaining activity at 10 µM [14]: 20%
- viability at 24 h [15]: > 30%
- remaining activity at 10 µM [16]: 30%

Compound: COC(=O)CCCC(=O)N1CCN(CCCOc2cc3c(Nc4ccc(F)c(Cl)c4)ncnc3cc2OC)CC1 [Analogue-3, methyl 5-(4-(3-(4-(3-chloro-4-fluorophenylamino)-7-methoxyquinazolin-6-yloxy)propyl)piperazin-1-yl)-5-oxopentanoate]
- viability at 10 µM (A549 cell line): 99.9%
- viability at 20 µM (A549 cell line): 94.8%
- viability at 40 µM (A549 cell line): 91.9%
- viability at 60 µM (A549 cell line): 91.3%
- viability at 80 µM (A549 cell line): 89.8%

Compound: COc1cc2ncnc(Nc3ccc(F)c(Cl)c3)c2cc1OCCCN1CCN(C(=O)CCC(=O)O)CC1 [Analogue-2, 4-(4-(3-(4-(3-chloro-4-fluorophenylamino)-7-methoxyquinazolin-6-yloxy)propyl)piperazin-1-yl)-4-oxobutanoic acid]
- toxicity effect on RKO cells [1]: no toxicity effect on RKO cells
- toxicity effect on BFTC905 cells [2]: minor toxicity effect on BFTC905 cells

Compound: CCCCCCCCCCOC(=O)CCC(=O)N1CCN(CCCOc2cc3c(Nc4ccc(F)c(Cl)c4)ncnc3cc2OC)CC1 [Analogue-16, decyl 4-(4-(3-(4-(3-chloro-4-fluorophenylamino)-7-methoxyquinazolin-6-yloxy)propyl)piperazin-1-yl)-4-oxobutanoate]
- viability at 10 µM (A549 cell line): 95.7%
- viability at 20 µM (A549 cell line): 88.2%
- viability at 40 µM (A549 cell line): 15.5%
- viability at 60 µM (A549 cell line): 3.9%
- viability at 80 µM (A549 cell line): 2%

Compound: CCCCCCCCCOC(=O)CCC(=O)N1CCN(CCCOc2cc3c(Nc4ccc(F)c(Cl)c4)ncnc3cc2OC)CC1 [Analogue-15, nonyl 4-(4-(3-(4-(3-chloro-4-fluorophenylamino)-7-methoxyquinazolin-6-yloxy)propyl)piperazin-1-yl)-4-oxobutanoate]
- viability at 10 µM (A549 cell line): 90%
- viability at 20 µM (A549 cell line): 79.7%
- viability at 40 µM (A549 cell line): 17.9%
- viability at 60 µM (A549 cell line): 10.3%
- viability at 80 µM (A549 cell line): 7.8%

— US9512086B2, “Compound for promoting apoptosis of cancer cells and a pharmaceutical composition containing the same and uses thereof” (National Chiao Tung University, priority 2014, dated 2016)
